# Data: paper PMC9698773, “Design, Synthesis, Molecular Modeling, and Anticancer Evaluation of New VEGFR-2 Inhibitors Based on the Indolin-2-One Scaffold” (Pharmaceuticals, 2022)
# “And” between values parts separate entries of the source, which are not always exact repeats. Identical values can stand only once.
# Legend:
# HepG2 cells = experiment: Cell cycle analysis (PI staining, flow cytometry); format: cell-based, human; conditions: HepG2, 1.13 µM, 24 h
# Method: The liver HepG2 cells were treated with 1.13 μM of 17a, and the effect on the cell cycle distribution was evaluated by flow cytometric analysis, as described in the Supplementary Materials. […]
# 4.2.3. Cell cycle analysis
# To determine the role of the synthesized compounds in cell cycle distribution, cell cycle analysis was performed using propidium iodide (PI) staining and flow cytometry analysis for compound 17a. A Flow Cytometry Kit for Cell Cycle Analysis (ab139418_Pro‐ pidium Iodide Flow Cytometry Kit/BD) was used in this test. HepG2 cells were treated with compound 17a (1.13 μM) for 24 h. Then, the cells were fixed in 70% ethanol at 4 °C for 12 h. After that, the cells were washed with cold PBS, incubated with 100 μl RNase A at 37 °C for 30 min, and stained with 400 μ l PI in the dark at room temperature for a further 30 min. The stained cells were measured using a BD FACSCalibur™ Flow Cytometer, and the data were analyzed using Flowing software (version 2.5.1, Turku Centre for Biotech‐
# Bcl-2 = Bcl-2 expression assay (Western blot); format: cell-based, human; conditions: HepG2, 1.13 µM, 24 h
# Method: The expression of BAX and Bcl-2 were evaluated in the HepG2 cells after treatment with 1.13 µM of compound 17a for 24 h. The Western blotting technique was utilized to determine the levels of Bax and Bcl-2 proteins and estimate the Bax/Bcl-2 ratio.
# The expression of apoptotic BAX and antiapoptotic Bcl-2 proteins in the liver HepG2 cells treated with 1.13 μM of 17a was determined using Western blot analysis, as described in the Supplementary Materials. […]
# Casp3 F: 5ʹ‐ […] ‐3ʹ
# Casp3 R: 5ʹ‐ […] ‐3ʹ […]
# β‐actin F: 5ʹ‐[…]‐3ʹ […]
# β‐actin R: 5ʹ‐[…]‐3ʹ […]
# 4.2.6. Bax and Bcl‐2 expression assay
# The expression of BAX and Bcl‐2 proteins were determined using Western blot anal‐ ysis. In brief, HepG2 cells were treated with control or with the synthesized compound 17a (1.13 μM). […] Total protein concentrations in the supernatant were colorimetrically determined using the Pierce 660 nm Protein Assay method (Thermo Fisher Scientific, Rockford, IL), with BSA as the stand‐ ard. […] Means of the detected blot intensities were then quantified, analyzed by the combined Bio‐Rad Image Lab soft‐ ware and their corresponding background subtracted, with normalization to the corre‐ sponding bands density of β‐actin as the sampling loading control. […]
structure (smiles),measurement,setting,value
"O=C1Nc2ccccc2C1=Nc1ccc(C(=O)NNC(=S)Nc2ccccc2)cc1 [Compound 17a, 2-(4-((2-Oxoindolin-3-ylidene)amino)benzoyl)-N-phenylhydrazinecarbothioamide]",Cell Cycle Distribution %G0-G1,HepG2 cells,42.91%
same,Cell Cycle Distribution %G2/M,HepG2 cells,9.07%
same,Cell Cycle Distribution %S,HepG2 cells,48.02%
same,Cell Cycle Distribution %pre G1,HepG2 cells,46.38%
same,increase of cell population at S phase versus control,HepG2 cells,1.43 fold
same,phase of cell cycle arrest,HepG2 cells,S phase
same,decrease of Bcl-2 expression versus control,Bcl-2,1.88 fold and 1.9 fold
same,Protein Expression (Normalized to β-Actin) Bcl-2,Bcl-2; control 0.432,0.229
